Measured values published in patent US9439430B2, “Method of controlling resistant harmful plants” (priority 2012, dated 2016).

Test system: AMATA
Test: Greenhouse test, pre-emergence (PE) soil application
Type: in vivo, Amaranthus rudis
Conditions: group (B) compound alone, 20 g of AS/ha
Description: The 1:1 mixture of the two soil types was used specifically for cultivating small-seeded dicotyledonous weed since the standard field soil on its own tends to silt up, which may have an adverse effect on the emergence of small-seeded weeds. The resistances mentioned in the tables were confirmed beforehand in standard monitoring experiments. Nevertheless, the origins examined may have additional, hitherto unconfirmed resistances to various mechanisms of action.
The pots were then cultivated in a greenhouse (12-16 h light, temperature day 20-22° C., night 15-18° C.) until the time of application. The pots were treated at various BBCH stages of the seeds/plants on a laboratory track sprayer with spray liquors comprising the compositions according to the invention, mixtures of the prior art or the individual components. Application of the active compounds or active compound combinations and wetting agents formulated as WG, WP, EC or otherwise was carried out at the appropriate growth stages of the plants. The amount of water used for spray application was 100-600 l/ha. After the treatment, the plants were returned to the greenhouses and fertilized and watered as required. The pots were cultivated in a greenhouse (12-16 h light, temperature day 20-22° C., night 15-18° C.).
3 weeks after the application, the foliar effect was evaluated on a scale of 0-100%:
0%=no noticeable effect compared to untreated plants
100%=full effect compared to untreated plants
The following abbreviations were used: • BBCH the BBCH code provides information about the morphological development stage of a plant. Officially, the abbreviation denotes the Biologische Bundesanstalt, Bundessortenamt and CHemische Industrie [Federal Biological Institute for Agriculture and Forestry, Federal Office for Crop Plant Varieties, Chemical Industry]. The range of BBCH 00-10 denotes the germination stages of the seeds until surface penetration. […]

Structure (SMILES): CCS(=O)(=O)c1cccnc1S(=O)(=O)NC(=O)Nc1nc(OC)cc(OC)n1 [(B3), rimsulfuron]
- effect on AMATA resistant - group B (TSR), C1 (TSR): 60

Structure (SMILES): COc1cc(OC)nc(NC(=O)NS(=O)(=O)c2cc(NC=O)ccc2C(=O)N(C)C)n1 [(B2), foramsulfuron]
- effect on AMATA resistant - group B (TSR), C1 (TSR): 40

Structure (SMILES): COc1cc(OC)nc(NC(=O)NS(=O)(=O)c2ncccc2C(F)(F)F)n1 [(B1), flazasulfuron]
- effect on AMATA resistant - group B (TSR), C1 (TSR): 60
